Test results published in patent US20250120942A1, “BRAIN FUNCTION IMPROVING AGENT” (OSAKA UNIVERSITY, priority 2021, published 2025).

Experiments:
[1] = tested on: scopolamine-induced amnesia mouse; assay: Y-maze test, short-term working memory of scopolamine-induced amnesia mouse (Test Example 2); assay type: in vivo, ddY mouse; settings: for scopolamine-induced reduction in working memory (Spontaneous Alternation): FIG. 2(C)
Procedure: The effect of inhibiting lowering of short-term memory was examined by orally or subcutaneously (intraperitoneally) administering the compound A to the mouse.
7-weeks-old male ddY mice were purchased from Japan SLC, Inc. and subjected to the experiment after one week habituation period. The animals were reared in the rearing chamber provided with air conditioner (under the condition that the temperature was 22° C.±1° C., the relative humidity was 50±10%, and the irradiation time was 12 hours (8:00 to 20:00)). The feeding method was that the commercially available MF powdery feed (manufactured by Oriental Yeast Co., ltd.) and tap water were taken freely.
The compound A prepared according to the procedure described in Manufacturing Example 1 was dissolved in 2.5% DMSO solution in advance. There were 15 mice in each group, and the 30 mg/kg compound administration group and the 10 mg/kg compound administration group were established and orally administered. The mice of the control group and Vehicle group were orally administered with only 2.5% DMSO solution. In the same manner the compound B and the compound C were orally administered to 10 mice at a dose of 30 mg/kg respectively. Each mouse of the administration groups of the compound A to C and the vehicle group was intraperitoneally administered with scopolamine hydrobromide (manufactured by Sigma-Aldrich Japan S1875) (a dose of 1 mg/kg) which is muscarinic acetylcholine receptor antagonist 30 minutes after the administration. The mice of the control group which were not administered with scopolamine hydrobromide were intraperitoneally administered with (Japanese Pharmacopoeia) physiological saline solution (OTSUKA NORMAL SALINE 3311401A2026). At 30 minutes after the final administration, Y-maze test was conducted, and the working memory was evaluated. The test using the mice orally administered was separately conducted under the same condition as that described above for comparative evaluation of the intraperitoneal administration.
The Y-maze manufactured by Brain Science. idea Co., Ltd. was used for the test. The maze was the maze 3 courses of which were made into Y-letter shape having one selection point and arranged at interval of an angle of 120 degree. […] The mouse put on the gray course (made of polyvinyl chloride) was kept in the conditions and the mouse can see nothing but the upper part. Any one of the 3 courses of the maze was set as a starting point. After placing the mouse quietly at the starting point, the number of the times the mouse entered each course was record per 8 minutes, and as well as which course and in what order the mouse entered it. The ratio of the number of three consecutive entries into different courses (the number of the alternation behavior) to the total number of the selections was calculated as Spontaneous Alternation (%) according to the following formula and was used as an index of the short-term working memory.
From the results obtained, the mean (Mean) and the standard error (SEM) were calculated. The significant difference between the control group and the Vehicle group and between the compound A administration group and the Vehicle group was assessed by Turkey-Kramer's test. The level of significance was set to *P<0.05 and **p<0.01.

[2] = tested on: mouse reared in long-term isolation; assay: Forced swimming test in mouse reared in long-term isolation (Test Example 6); assay type: in vivo, ddY mouse; settings: test 30 minutes after administration, 5 weeks isolation, FIG. 6
Procedure: The psychiatric disorder model mouse which was reared in isolation for 5 weeks was orally administered with the compound A and 30 minutes after the administration subjected to the Forced swimming test. The effect of improving depressive symptoms was examined.
The 3-weeks old male ddY mouse which was reared in isolation for 5 weeks in the same manner as in Test Example 3 was used for the test.
The compound A was dissolved in 2.5% DMSO solution in advance. After long-term isolated rearing the mice were divided into 3 groups of 7 mice and the administration groups of the compound A (the administration group of 30 mg/kg, the administration group of 10 mg/kg) and Vehicle group (the administration group of 2.5% DMSO solution) were set and the oral administration was carried out.
In 30 minutes after the oral administration, the forced swimming test was carried out in the same manner as in Test Example 5. The immobility time was measured during the test of 6 minutes and the depressive symptoms of the mouse was evaluated.
From the results obtained, the mean (Mean) and the standard error (SEM) were calculated. The significant difference was assessed between the compound A administration group and the Vehicle group by using Dunnett's test. The level of significance was set to *P<0.05. The vertical axis of the graph in FIG. 6 represents the immobility time during the test.

O=C1CC[C@H](Cc2cc(O)cc(O)c2)O1 [compound A, (R)-5-(3,5-dihydroxyphenyl)-γ-valerolactone]
ameliorating the impairment of short-term working memory (Spontaneous Alternation) ([1]; oral 30 mg/kg, scopolamine 1 mg/kg i.p., FIG. 2(A),(B)): significant effect of inhibiting the lowering of short-term working memory
lowering of the short-term memory due to scopolamine (Spontaneous Alternation) ([1]; oral administration groups (10 mg/kg and 30 mg/kg), scopolamine 1 mg/kg i.p. 30 minutes later, FIG. 2(A)): inhibited
scopolamine-induced reduction in working memory (Spontaneous Alternation) ([1]; oral administration): inhibited scopolamine-induced reductions in working memory
scopolamine-induced reduction in working memory (Spontaneous Alternation) ([1]; subcutaneous administration): inhibited scopolamine-induced reductions in working memory
immobility time in forced swimming test versus vehicle group ([2]; oral 10 mg/kg): significantly reduced
immobility time in forced swimming test versus vehicle group ([2]; oral 30 mg/kg): significantly reduced
